Laboratory results as given in the NIST ThermoML archive (doi:10.1021/je060271a).

Details: 303.15 K, Liquid, Vibrating tube method

CCCCC(=O)OCC(COC(=O)CCCC)(COC(=O)CCCC)COC(=O)CCCC [pentaerythritol tetrapentanoate]
Details	mass density [kg/m3]
4917.5 kPa	1014
4937.6 kPa	1014
4960.8 kPa	1014
4980.3 kPa	1014.2
5000.8 kPa	1014.1
5025.3 kPa	1014.2
5046.6 kPa	1014.1
5067.7 kPa	1014.1
5090.5 kPa	1014.1
5111.3 kPa	1014.1
5136.1 kPa	1014.1
5153.9 kPa	1014.2
5159.6 kPa	1014.2
5160.1 kPa	1014.2
5161.3 kPa	1014.2
5164.9 kPa	1014.2
5167.4 kPa	1014.3
5169.1 kPa	1014.2
5170.1 kPa	1014.2
5173.9 kPa	1014.1
5178.6 kPa	1014.2
5179.3 kPa	1014.2
5180.5 kPa	1014.2
5181.4 kPa	1014.2
5181.7 kPa	1014.2
5182.6 kPa	1014.3
5182.9 kPa	1014.3
5183.8 kPa	1014.2
5184.3 kPa	1014.2
5184.7 kPa	1014.2
5185.4 kPa	1014.2
5185.5 kPa	1014.3
5189.7 kPa	1014.1
5199.6 kPa	1014.3
5209.2 kPa	1014.3
5217.7 kPa	1014.2
5223.9 kPa	1014.2
5239.9 kPa	1014.2
5266.9 kPa	1014.4
5289.9 kPa	1014.2
5312.7 kPa	1014.4
5340.7 kPa	1014.1
5364.2 kPa	1014.3
5388.3 kPa	1014.4
5417.9 kPa	1014.3
5443 kPa	1014.4
5468.4 kPa	1014.4
5493.1 kPa	1014.4
5518.4 kPa	1014.5
5548.5 kPa	1014.4
5573.5 kPa	1014.4
5599.8 kPa	1014.5
5631 kPa	1014.4
5657.1 kPa	1014.5
5684.4 kPa	1014.6
5712.8 kPa	1014.5
5747 kPa	1014.4
5774.2 kPa	1014.6
5801.5 kPa	1014.6
5829.1 kPa	1014.6
5862.5 kPa	1014.7
5891.4 kPa	1014.7
5920.4 kPa	1014.8
5955.2 kPa	1014.6
5985.3 kPa	1014.7
6015.3 kPa	1014.7
6045.8 kPa	1014.8
6082.1 kPa	1014.7
6112.3 kPa	1014.8
6149.7 kPa	1014.8
6181.5 kPa	1014.8
6213.5 kPa	1014.9
6246.6 kPa	1014.8
6279.6 kPa	1014.9
6319.4 kPa	1014.9
6353.6 kPa	1015
6388.4 kPa	1014.9
6430.4 kPa	1015
6466 kPa	1014.9
6496.2 kPa	1015
6524.4 kPa	1015.1
6558.6 kPa	1015.1
6587.6 kPa	1015.1
6617.8 kPa	1015.1
6648.1 kPa	1015.2
6678.6 kPa	1015.1
6714 kPa	1015.2
6743.7 kPa	1015.3
6774.5 kPa	1015.2
6811.1 kPa	1015.3
6842.3 kPa	1015.2
6873.4 kPa	1015.3
6911.1 kPa	1015.3
6943.4 kPa	1015.4
6975.7 kPa	1015.2
7008.7 kPa	1015.3
7048.1 kPa	1015.3
7083.3 kPa	1015.5
7119.9 kPa	1015.4
7154.6 kPa	1015.4
7190.2 kPa	1015.4
7232.8 kPa	1015.5
7266.1 kPa	1015.6
7296.5 kPa	1015.5
7326.2 kPa	1015.5
7361.8 kPa	1015.6
7392.7 kPa	1015.6
7425.7 kPa	1015.6
7461.8 kPa	1015.7
7491.3 kPa	1015.7
7529.6 kPa	1015.6
7561.2 kPa	1015.7
7593.6 kPa	1015.8
7626.1 kPa	1015.9
7659.1 kPa	1015.6
7692.2 kPa	1015.8
7732.6 kPa	1015.9
7766.1 kPa	1015.8
7800.6 kPa	1015.9
7835 kPa	1015.7
7876.5 kPa	1015.9
7911.6 kPa	1016
7947.1 kPa	1016
7990.4 kPa	1016
8026.7 kPa	1015.9
8062.9 kPa	1016.1
8107.6 kPa	1016.1
8145.4 kPa	1016.1
8184.2 kPa	1016.2
8222.5 kPa	1016.2
8262.2 kPa	1016.2
8293.2 kPa	1016.2
8323.8 kPa	1016.3
8354.7 kPa	1016.2
8392.8 kPa	1016.3
8424.5 kPa	1016.1
8457.1 kPa	1016.3
8489 kPa	1016.4
8528 kPa	1016.3
8560.4 kPa	1016.4
8593.7 kPa	1016.5
8633.4 kPa	1016.4
8666.8 kPa	1016.3
8707.5 kPa	1016.4
8742.2 kPa	1016.4
8776.3 kPa	1016.6
8818.4 kPa	1016.6
8854.8 kPa	1016.4
8890.8 kPa	1016.5
8920.7 kPa	1016.5
8952.9 kPa	1016.6
8979.8 kPa	1016.7
9013.1 kPa	1016.5
9039.8 kPa	1016.6
9066.8 kPa	1016.6
9100.5 kPa	1016.7
9128.4 kPa	1016.7
9157.4 kPa	1016.6
9191.7 kPa	1016.8
9218.7 kPa	1016.8
9247.2 kPa	1016.8
9281.8 kPa	1016.7
9311.6 kPa	1016.7
9342 kPa	1016.8
9371.6 kPa	1016.9
9407.8 kPa	1016.8
9438.5 kPa	1016.8
9469.3 kPa	1017
9495.9 kPa	1017
9521 kPa	1016.9
9552.9 kPa	1017
9584.8 kPa	1016.9
9608.9 kPa	1017
9634.2 kPa	1017
9666.8 kPa	1017
9688 kPa	1017
9719.7 kPa	1017.1
9746.4 kPa	1017.1
9779.5 kPa	1017.2
9805.7 kPa	1017.2
9831.9 kPa	1017.1
9858.9 kPa	1017.1
9892.2 kPa	1017.1
9921.6 kPa	1017.2
9948 kPa	1017.2
9980.5 kPa	1017.3
10009 kPa	1017.3
10046 kPa	1017.3
10069 kPa	1017.3
10099 kPa	1017.4
10134 kPa	1017.2
10161 kPa	1017.2
10195 kPa	1017.3
10225 kPa	1017.5
10254 kPa	1017.4
10289 kPa	1017.4
10319 kPa	1017.5
10351 kPa	1017.4
10382 kPa	1017.1
10417 kPa	1017.5
10448 kPa	1017.6
10480 kPa	1017.6
10517 kPa	1017.7
10550 kPa	1017.5
10583 kPa	1017.6
10624 kPa	1017.7
10658 kPa	1017.5
10690 kPa	1017.7
10713 kPa	1017.7
10757 kPa	1017.7
10800 kPa	1017.6
10821 kPa	1017.7
10840 kPa	1017.8
10863 kPa	1017.8
10883 kPa	1017.9
10904 kPa	1017.8
10928 kPa	1017.9
10947 kPa	1017.9
10968 kPa	1017.8
10992 kPa	1017.9
11013 kPa	1017.8
11033 kPa	1017.9
11058 kPa	1017.9
11078 kPa	1017.9
11101 kPa	1018
11121 kPa	1018
11147 kPa	1017.9
11168 kPa	1017.9
11191 kPa	1018.1
11213 kPa	1017.9
11234 kPa	1017.9
11255 kPa	1018.1
11281 kPa	1018
11302 kPa	1018
11328 kPa	1018.2
11349 kPa	1018.1
11372 kPa	1018.1
11398 kPa	1018.1
11420 kPa	1018.2
11443 kPa	1018
11469 kPa	1018.2
11491 kPa	1018.1
11513 kPa	1018.1
11541 kPa	1018.2
11564 kPa	1018.2
11586 kPa	1018.3
11612 kPa	1018.2
11635 kPa	1018.2
11658 kPa	1018.3
11688 kPa	1018.3
11710 kPa	1018.2
11734 kPa	1018.2
11758 kPa	1018.4
11785 kPa	1018.3
11809 kPa	1018.3
11838 kPa	1018.4
11862 kPa	1018.4
11884 kPa	1018.5
11909 kPa	1018.4
11938 kPa	1018.6
11963 kPa	1018.4
11988 kPa	1018.5
12014 kPa	1018.5
12044 kPa	1018.5
12069 kPa	1018.5
12095 kPa	1018.5
12120 kPa	1018.5
12148 kPa	1018.6
12173 kPa	1018.6
12205 kPa	1018.5
12229 kPa	1018.7
12254 kPa	1018.5
12285 kPa	1018.7
12312 kPa	1018.6
12338 kPa	1018.6
12366 kPa	1018.7
12391 kPa	1018.8
12423 kPa	1018.7
12449 kPa	1018.7
12476 kPa	1018.7
12508 kPa	1018.8
12536 kPa	1018.8
12562 kPa	1018.8
12596 kPa	1018.8
12621 kPa	1018.8
12649 kPa	1018.8
12682 kPa	1018.8
12710 kPa	1018.8
12740 kPa	1018.9
12766 kPa	1018.9
12798 kPa	1019
12826 kPa	1018.9
12856 kPa	1019
12889 kPa	1019.1
12918 kPa	1019.1
12946 kPa	1019
12980 kPa	1019.1
13009 kPa	1019
13044 kPa	1019.1
13075 kPa	1019.2
13102 kPa	1019.2
13132 kPa	1019.1
13169 kPa	1019.2
13197 kPa	1019.1
13227 kPa	1019.2
13258 kPa	1019.1
13295 kPa	1019.2
13324 kPa	1019.2
13359 kPa	1019.3
13390 kPa	1019.3
13421 kPa	1019.3
13458 kPa	1019.3
13489 kPa	1019.4
13520 kPa	1019.4
13558 kPa	1019.4
13590 kPa	1019.4
13622 kPa	1019.4
13660 kPa	1019.5
13693 kPa	1019.5
13725 kPa	1019.6
